Results: patent US7653490B2, “Nuclear magnetic resonance assembly of chemical entities” (Triad Liquidating Company LLC, priority 2001, dated 2010)
pIC50, pKd: −log10 of the molar value. Each block holds one compound with its values, some of them ahead of it.

How the values were obtained:
p38α MAP kinase = p38α MAP kinase (Homo sapiens, UniProt Q16539); test: Phosphorylation of myelin basic protein (MBP) by p38α; format: biochemical
Experimental: The TTM2001.101.A09 bi-ligand compound and the fragments from which it was constructed were tested as inhibitors of p38α enzymatic activity in an assay measuring phosphorylation of myelin basic protein (MBP) by p38α.

p38α [1] = biological target: T1, p38α (Homo sapiens, UniProt Q16539); test: 1D 1H NMR line broadening; format: binding; conditions: 50 micromolar compound, 10 μM p38α
T1 sequence (Q16539 whole entry): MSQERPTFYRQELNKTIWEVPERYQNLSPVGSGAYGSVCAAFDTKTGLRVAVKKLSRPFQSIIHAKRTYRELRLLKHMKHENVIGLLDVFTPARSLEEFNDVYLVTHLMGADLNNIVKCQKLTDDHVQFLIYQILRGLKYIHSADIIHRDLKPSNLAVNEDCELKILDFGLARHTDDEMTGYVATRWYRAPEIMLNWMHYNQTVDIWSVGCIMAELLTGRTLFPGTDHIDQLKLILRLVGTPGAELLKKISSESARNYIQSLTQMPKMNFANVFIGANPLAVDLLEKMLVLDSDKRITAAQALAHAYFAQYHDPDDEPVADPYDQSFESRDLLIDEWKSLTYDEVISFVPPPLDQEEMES
Experimental: The ability of TTM2001.101.A09 to bind to p38α was determined by comparing the degree of line broadening in 1D ^1H NMR spectra for the compound in the presence of p38α compared to in the absence of p38α.

p38α [2] = biological target: T1, p38α; test: Fluorescence polarization displacement of fluorescently tagged staurosporine; format: binding
[3] = biological target: unactivated p38α MAP kinase (Homo sapiens, UniProt Q16539); test: WaterLOGSY NMR binding screen; conditions: 10 to 30 micromolar p38α, 0.1 to 1.0 millimolar compound, 4° C.
Sequence of unactivated p38α MAP kinase (Q16539 whole entry): as above
From the text: A library of 29 PBBA structure analogs was screened against unlabeled p38α MAP kinase (p38α) as follows. Samples containing 10 to 30 micromolar concentration of unactivated p38α MAP kinase and 0.1 to 1.0 millimolar concentration of one of the PBBA structure analogs were obtained. The samples were screened using WaterLOGSY with saturations times of 2 s (frequency selective excitation via a train of 232 6 ms π pulses with a GAUSS profile at an 80 Hz RF field strength) with solvent suspension using WATERGATE at 4° C. WaterLOGSY is further described in Dalvit et al. J. Biomol. NMR 21:349-59 (2001) Dalvit et al. J. Magn. Res. B112:282-288 (1996) and Dalvit et al., J. Biomol. NMR 11:437-444 (1998).
A number of PBBA related compounds were screened with WaterLOGSY to identify those that bound to p38α. Of the compounds shown in FIG. 6, two were identified by cross-saturation experiments (with 10 μM unactivated p38α, 1.5 s to 3.0 s saturation with a train of IBURP pulses) to interact with TTM2001.082.A10 as indicated by the arrows.

[4] = biological target: activated p38α protein kinase (Homo sapiens, UniProt Q16539); test: 1D saturation transfer difference with selective saturation of antenna methyl of TTM2002.143.A27; format: binding; conditions: 2 s saturation at 3.0 ppm, 4° C.
Sequence of activated p38α protein kinase (Q16539 whole entry): as above
From the text: The 25 compounds from the MOTIF library described in Example IV were screened for proximal binding near the ligand-probe as follows. Samples were obtained containing 100 to 1000 micromolar concentrations of the TTM2002.143.A27 ligand-probe, 10 to 50 micromolar concentrations of activated p38α protein kinase, and one of the 25 compounds at a concentration of 100 to 1000 micromolar. Samples were screened for the presence of second ligands binding proximal to the common ligand-probe by (^1H) 1 dimensional saturation transfer difference experiments using saturations times of 2 s (frequency selective excitation via a train of 232 6 ms τ pulses with a GAUSS profile at an 80 Hz RF field strength) with solvent suspension using WATERGATE at 4° C.

p38α [5] = biological target: T1, p38α; test: WaterLOGSY competition experiments (displacement of PBBA); format: binding
From the text: A peptide having the sequence […] (SEQ ID NO:1) is a known phosphorylation substrate for p38α as described, for example, in Chen et al. Biochemistry 39:2079-2087 (2000). […] This site is shown in the lower panel of FIG. 7, and is referred to as the SL (specificity ligand) site, since extending a bi-ligand library into this site off of an ATP mimic might provide additional specificity.

Sequence of p38α MAP kinase (Q16539 whole entry, the tested form may be a part): as the sequence (Q16539 whole entry) above

- pKd (p38α MAP kinase; IC50 corrected for high ATP concentration, read-out: Kd for binding between p38α and compound): ~6.52
- pIC50 (p38α MAP kinase; read-out: IC50, inhibition of myelin basic protein phosphorylation by p38α): 5.77
- fold tighter than either of the starting fragments (p38α MAP kinase; versus starting fragments PBBA and TTM2001.082.B09): greater than 100 fold
- line broadening in 1D 1H NMR spectrum in presence of p38α (p38α [1]): significant line-broadening
Compound: O=C(O)c1ccc(CCCCCCSCc2cc(-n3cnc4cc(C(=O)O)ccc43)ccc2F)cc1 [TTM2001.101.A09]

Compound: CCCCc1ccc(C(=O)O)cc1 [PBBA, p-butyl benzoic acid]
- inhibition of phosphorylation of MBP protein by p38α (in words) (p38α MAP kinase): inhibit phosphorylation of MBP protein by p38α
- ability to displace fluorescently tagged staurosporine (p38α [2]): not able to displace a fluorescently tagged staurosporine
- binding to p38α by WaterLOGSY cross-saturation [3]: showed cross-saturation effects with p38α indicating binding to the protein

Compound: CCCCCc1ccc(N)cc1 [PPA, p-pentyl-aniline]
- intensity change of aromatic protons on selective saturation of antenna methyl protons [4]: showed a reduction in the intensity on selective saturation of the methyl protons

- ability to displace PBBA from p38α, WaterLOGSY competition (p38α [5]): could not displace PBBA from p38α
Compound: SEQ ID NO:1: peptide IPTTPITTTYFFFKKK, known phosphorylation substrate for p38α
